Laboratory results taken from article PMC5356443, “Structural, mechanistic and functional insight into gliotoxin bis-thiomethylation in Aspergillus fumigatus” (Open Biology, 2017).

Experiments:
[1] = biological target: GtmA (gliotoxin S-methyltransferase, TmtA) (Aspergillus fumigatus, UniProt Q4X158); assay: RP-HPLC methyltransferase assay with purified enzyme, Km determination; format: biochemical
[2] = tested on: [H][C@]12C(=CC=C[C@@H]1O)C[C@@]1(S)C(=O)N(C)[C@@](S)(CO)C(=O)N12; assay: as above; format: biochemical, Aspergillus fumigatus; details: SAM

Chain of GtmA (gliotoxin S-methyltransferase, TmtA) (Q4X158 whole entry): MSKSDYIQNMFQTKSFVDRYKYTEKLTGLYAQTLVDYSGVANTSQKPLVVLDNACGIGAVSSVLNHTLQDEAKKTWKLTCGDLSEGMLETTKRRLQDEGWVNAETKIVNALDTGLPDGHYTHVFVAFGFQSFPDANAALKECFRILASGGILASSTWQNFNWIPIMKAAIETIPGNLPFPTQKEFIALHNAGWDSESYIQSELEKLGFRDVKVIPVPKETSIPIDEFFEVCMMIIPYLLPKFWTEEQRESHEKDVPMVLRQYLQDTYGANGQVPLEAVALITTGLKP

Row | Compound | Km [1] [µM] | Km [2] [µM]
1 | CS[C@@]12CC3=CC=C[C@H](O)[C@H]3N1C(=O)[C@](S)(CO)N(C)C2=O [MmGT, monomethylgliotoxin] | 184 | 
2 | GtmA (gliotoxin S-methyltransferase, TmtA) (Aspergillus fumigatus Af293) |  | 38.62
